The results in this text go back to patent US10894817B2, “Fatty acid modified urocortin-2 analogs for the treatment of diabetes and chronic kidney disease” (priority 2016, dated 2021).

Data set [1] has as its system UniNx db/db AAV renin mice. Description: Uninephrectomized db/db AAV renin model of diabetic nephropathy. It is filed as in vivo. As to the method:
The uninephrectomized db/db adeno-associated viral (AAV) renin model represents a progressive model of diabetic kidney disease with hypertension driven by an AAV renin transgene (Am J Physiol Regul Integr Comp Physiol. 309(5):R467-74, (2015)).
The uninephrectomy (UniNx) surgery on female db/db mice on a C57BLKS/J background (obtained from Harlan Laboratories) is performed by Harlan Laboratories at 4 weeks of age with removal of the right kidney to accelerate the diabetic kidney disease. Animals are received at 5 weeks of age and housed in micro-isolator cages at 3 mice per cage and are on a 12 hour light/dark cycle. All db/db mice are fed ad libitum with Purina special diet 5008 and allowed free access to autoclaved water.
Mice are acclimated for 7 weeks prior to administration of AAV Renin (5×10^9 GC) intravenously by the retro-orbital sinus to induce persistent hypertension. Randomization by urine albumin to creatinine ratio (ACR), blood glucose and body weight is done at 15 weeks of age (a point at which renal disease and pathology are established in this model based on observations) into 2 groups of 12 saline control mice and 33 mice to receive Lisinopril treatment.
Dosing with Lisinopril (30 mg/L) begins at 16 weeks of age. After 2 weeks of Lisinopril treatment, the 33 mice are randomized by urine ACR, blood glucose and body weight into 4 groups (one group of 9 mice and 3 groups of 8 mice).
In the 4 groups of UniNx db/db AAV renin mice receiving Lisinopril treatment, either 0.9% physiological saline for injection (“saline control” N=9) or different dose levels of Example 4 (7.2, 24 or 72 nmol/kg, N=8 per dose level) are dosed at 0.2 mL s.c. per injection beginning at 18 weeks of age and continued 3 times weekly for 12 weeks. Albumin and creatinine are measured in urine with a Roche Hitachi Modular Analytics P analyzer with Roche reagents for detection of albumin and creatinine.
For all the groups, the parameters measured are body weight, kidney weight, heart weight, urine albumin to creatinine ratio, serum creatinine and renal pathology scores for mesangial matrix expansion, glomerular fibrosis, tubular regeneration, interstitial inflammation and interstitial fibrosis.
At 15 and 27 weeks of age, blood (30 to 50 uL) from all the UniNx db/db AAV Renin mice is obtained from the tail vein and dropped onto a Precision PCx blood glucose sensor electrode strip (Abbott Laboratories) for blood glucose determination with a MediSense Precision PCx glucometer (Abbott Laboratories). Blood glucose data is used to block the UniNx db/db mice into equivalent groups. Body weight is determined at baseline and at termination with a Metler Toledo Balance. The heart and kidney are removed at necropsy and weighed on a Metler Toledo Balance. Blood (500 ul) is collected from the retro-orbital sinus at termination under isoflurane anesthesia. The clotted blood is centrifuged to obtain serum. Serum is analyzed for creatinine on a Roche Hitachi Modular Analytics P analyzer with reagents from Roche.
Urine is collected by a spot collection method to collect urine over a 2-4 hr time period. An individual mouse is placed on top of a 96 well polypropylene microplate and then covered by a Plexiglas chamber with holes for breathing but no access to food or water. At the end of the time period, the urine is removed from the plate with a micropipette and placed on ice, centrifuged and subjected to albumin and creatinine analysis. Urine albumin, creatinine and glucose are determined on a Roche Hitachi Modular Analytics P analyzer. Urine creatinine is determined with the Creatinine Plus reagent by Roche. For urine albumin, the Roche Microalbumin assay is modified to adapt the calibration curve for measuring urine albumin in mice. Albuminuria was defined as albumin to creatinine ratio (ACR).
Kidneys are removed at study termination, fixed in formalin and processed for paraffin sectioning according to standard methodology. […]

The next data set in a line: in vivo. Conditions: male, Sprague Dawley, rat, sc; for half-life: T1/2.

Starred links: 1 amine or outer side, 2 acyl side, 3 side chain; linkers in the order of their positions; H or OH if unused. Non-standard residues stand in square brackets, D forms with d. Residues, ends and D or L forms follow the SMILES beside them. Groups on a side chain read outwards from the residue. *: point of attachment. C20 diacid = O=C(O)CCCCCCCCCCCCCCCCCCC(=O)*; γGlu = O=C(O)[C@H](CCC(=O)[*:2])N[*:1]; NMeI = CC[C@H](C)[C@H](NC)C(=O)O; AEEA = NCCOCCOCC(=O)O

Turning to `CC[C@H](C)[C@H](NC)C(=O)N[C@H](C(=O)N[C@@H](CC(C)C)C(=O)N[C@@H](CO)C(=O)N[C@@H](CC(C)C)C(=O)N[C@@H](CC(=O)O)C(=O)N[C@H](C(=O)N1CCC[C@H]1C(=O)N[C@H](C(=O)NCC(=O)N[C@@H](CC(C)C)C(=O)N[C@@H](CC(C)C)C(=O)N[C@@H](CCC(N)=O)C(=O)N[C@H](C(=O)N[C@@H](CC(C)C)C(=O)N[C@@H](CC(C)C)C(=O)N[C@@H](CCC(=O)O)C(=O)N[C@@H](CCC(N)=O)C(=O)N[C@@H](CCC(=O)O)C(=O)N[C@@H](CCCCN)C(=O)N[C@@H](CCC(N)=O)C(=O)N[C@@H](CCC(=O)O)C(=O)N[C@@H](CCCCN)C(=O)N[C@@H](CCC(=O)O)C(=O)N[C@@H](CCCCN)C(=O)N[C@@H](CCC(N)=O)C(=O)N[C@@H](CCC(N)=O)C(=O)N[C@@H](C)C(=O)N[C@@H](CCCCNC(=O)COCCOCCNC(=O)COCCOCCNC(=O)CC[C@H](NC(=O)CC[C@H](NC(=O)CCCCCCCCCCCCCCCCCCC(=O)O)C(=O)O)C(=O)O)C(=O)N[C@H](C(=O)N[C@@H](CC(N)=O)C(=O)N[C@@H](C)C(=O)N[C@@H](CCC(N)=O)C(=O)N[C@H](C(=O)N[C@@H](CC(C)C)C(=O)N[C@@H](C)C(=O)N[C@@H](CCC(N)=O)C(=O)N[C@H](C(N)=O)C(C)C)[C@@H](C)CC)[C@@H](C)O)[C@@H](C)CC)[C@@H](C)CC)C(C)C)C(C)C` [Example 4] (H-[NMeI]VLSLDVPIGLLQILLEQEKQEKEKQQAK([AEEA-AEEA-γGlu-γGlu-C20 diacid])TNAQILAQV-NH2), the “deaths over the course of the study” value was found to be 1 in data set [1] (Lisinopril plus 7.2 nmol/kg Example 4 group (N=8)), 3 in data set [1] (Lisinopril plus 24 nmol/kg Example 4 group (N=8)) and 3 in data set [1] (Lisinopril plus 72 nmol/kg Example 4 group (N=8)). Further, the CL/F (usually clearance divided by bioavailability, as obtained after extravascular dosing) in “in vivo” (50 nmol/kg) is 0.107 mL/min/kg; in “in vivo” (150 nmol/kg), 0.113 mL/min/kg. Moreover, the half-life (commonly the time in which the quantity being followed falls by half) in “in vivo” (50 nmol/kg) was 19 h; in “in vivo” (150 nmol/kg) it was 21 h.
